Measurements published in patent US20090130229A1, “Antitumor uses of compound” (Cell Therapeutics, Inc., priority 2002, published 2009).

Tests used:
Ret/MEN2A(C634R) = molecular target: T1, Ret/MEN2A(C634R) (Homo sapiens, UniProt P07949, C634R); experiment: Ret/MEN2A(C634R) autophosphorylation and expression in NIH3T3 transfectants (Western blotting); assay type: cell-based; conditions: 10 μM
T1 construct: expressed in transfected cells; host or cells: NIH3T3 (mouse fibroblasts)
Procedure: FIG. 1. Effects of Cpd 1 on NIH3T3^MEN2A(C634R) transfectants expressing exogenous RET/MEN2A(C634R). […] Cells were exposed to 6 μM Cpd1 for 24 h and then photographed under a phase-contrast microscope (original magnification ×100). B) Antiproliferative effect. NIH3T3^MEN2A(C634R) cells and the parental NIH3T3 cells were treated with increasing concentrations of the drug for 72 h and then counted with a Coulter Counter. […] C) Inhibition of Ret/MEN2A(C634R) autophosphorylation and expression. Cells were treated with solvent (−) or 10 μM Cpd1 (+), for the indicated times. Whole cell-lysates were prepared and subjected to SDS-PAGE and Western blotting with anti-pTyr antibody. After stripping, the filter was reblotted with anti-Ret antibody. Arrows indicate the partial and fully glycosilated forms of the Ret/MEN2A receptor.
The following human medullary thyroid carcinoma (MTC) cell lines were used in this study. The TT cell line derived from a MEN2A-associated MTC characterized by expression of the RET oncogene carrying the mutation C634W. The MZ-CRC-1 cell line derived from MEN2B-associated MTC characterized by expression of the RET oncogene carrying the mutation M918T. TT cells were cultivated in Ham's F12 medium (BioWhittaker, Verviers, Belgium) supplemented with 15% fetal calf serum (FCS) (Life Technologies, Inc., Gaithersburg, Md.) whereas MZ-CRC-1 cells were grown in Dulbecco's modified Eagle's medium (DMEM) (BioWhittaker) supplemented with 10% FCS. […]
(§1) For whole-cell extract preparation, cells were lysed in sodium dodecyl sulfate (SDS) sample buffer (62.5 mM Tris-HCl (pH 6.8), 2% SDS) with 1 mM PMSF, 10 μg/ml pepstatin, 12.5 μg/ml leupeptin, 100 KIU aprotinin, 1 mM sodium orthovanadate, 1 mM sodium molybdate. Protein concentration was determined in appropriately diluted aliquots by the bicinchionic acid (BCA) method (Pierce, Rockford, Ill.), then samples were adjusted to a final concentration of 10% glycerol, 5% β-mercaptoethanol, 0.001% bromophenol blue. […]

[1] = test system: TT medullary thyroid carcinoma xenografts; experiment: Antitumor activity in nude mice harboring TT xenografts; assay type: in vivo; conditions: for TWI (tumor weight inhibition): 10 consecutive days
Procedure: FIG. 3. Antitumor activity of Cpd 1 in nude mice harboring TT medullary thyroid carcinoma xenografts. Drug treatment started 25 days after s.c. inoculum of the tumor cells. Cpd 1 was delivered per os at 50 or 100 mg/Kg, twice in a day (2qd), for 10 consecutive days (indicated by arrows). Control mice received the vehicle. […] TWI were 60% (P<0.005) and 80% (P<0.0005) for the 50 mg/Kg and 100 mg/Kg doses, respectively.
All experiments were carried out using female athymic nude CD-1 mice, 8-11-weeks old (Charles River, Calco, Italy). Mice were maintained in laminar flow rooms with constant temperature and humidity. Experimental protocols were approved by the Ethic Committee for Animal Experimentation of the Istituto Nazionale per lo Studio e la Cura dei Tumori (Milan, Italy), according to the United Kingdom Coordinating Committee on Cancer Research Guidelines (Workman P. et al., British Journal of Cancer, 77, 1, 1998).
The MTC cells TT (1.6×10^7 cells) were s.c. inoculated in mice as a cell suspension from in vitro cell culture. Each control or drug-treated group included 8-10 tumors. Tumor cells were injected on day 0, and tumor growth was followed by biweekly measurements of tumor diameters with a Vernier caliper. Tumor weight (TW) was calculated according to the formula: TW (mg)=tumor volume (mm^3)=d^2xD/2, where d and D are the shortest and the longest diameter, respectively. Drug treatment started when tumors were just measurable (mean TW about 50 mg), 25 days after the inoculum of tumor cells. Cpd1 was dissolved in 5% ethanol, 5% Cremophor EL, 90% saline (0.9% NaCl) and delivered per os twice in a day (2qd) by a daily schedule for 10 days. Control mice received the solvent solution.
Drug efficacy was assessed as percentage TW inhibition (TWI % in drug-treated versus control mice expressed as: TWI %=100−(mean TW treated/mean TW control×100). For statistical analysis, TW in control and treated mice were compared on the day of TWI % evaluation, by Student's t test (two-tailed). P values less than 0.05 were considered statistically significant.

FGF-R1 = molecular target: T2, FGF-R1 (Mus musculus, UniProt P16092); experiment: FGF-R1 autophosphorylation and expression in Swiss3T3 cells; assay type: cell-based; conditions: 18 h
T2 construct: endogenous in cells; host or cells: Swiss3T3 (mouse fibroblasts)
T2 sequence (P16092 22-822): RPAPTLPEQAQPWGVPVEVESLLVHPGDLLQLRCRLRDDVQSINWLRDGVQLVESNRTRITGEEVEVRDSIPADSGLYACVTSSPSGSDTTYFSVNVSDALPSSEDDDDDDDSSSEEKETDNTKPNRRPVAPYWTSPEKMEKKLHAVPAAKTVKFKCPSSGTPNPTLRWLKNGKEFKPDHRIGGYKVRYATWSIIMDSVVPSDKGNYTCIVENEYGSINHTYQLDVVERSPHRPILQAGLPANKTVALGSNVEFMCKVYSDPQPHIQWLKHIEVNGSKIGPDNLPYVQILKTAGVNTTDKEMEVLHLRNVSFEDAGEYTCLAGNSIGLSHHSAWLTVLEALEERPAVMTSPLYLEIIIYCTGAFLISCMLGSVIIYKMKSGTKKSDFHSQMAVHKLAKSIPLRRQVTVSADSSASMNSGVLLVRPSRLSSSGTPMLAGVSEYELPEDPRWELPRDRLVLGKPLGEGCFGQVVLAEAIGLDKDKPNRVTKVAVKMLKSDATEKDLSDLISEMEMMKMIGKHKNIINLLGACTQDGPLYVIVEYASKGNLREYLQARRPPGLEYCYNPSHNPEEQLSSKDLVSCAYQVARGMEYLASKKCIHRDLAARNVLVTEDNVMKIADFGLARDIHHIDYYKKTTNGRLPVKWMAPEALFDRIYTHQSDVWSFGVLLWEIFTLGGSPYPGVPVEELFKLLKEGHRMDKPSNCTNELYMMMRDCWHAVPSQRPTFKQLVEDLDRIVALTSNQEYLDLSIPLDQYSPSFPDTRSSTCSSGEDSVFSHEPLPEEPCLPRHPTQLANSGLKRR
Procedure: FIG. 6. Inhibition of autophosphorylation and expression of FGF-R1 and FGF-R3 receptors in whole cells by Cpd1. A): Swiss3T3 cells were serum starved for 24 h and then treated with Cpd1 at the indicated concentrations, for 18 h. After stimulation with 100 ng/ml FGF for 5 min, whole cell lysates were prepared and subjected to Western blotting with anti-pTyr or anti-FGF-R1. Protein loading by anti-actin blot is shown. B): NIH3T3 transformed by the FGF-R3 mutant Y373C were treated with the indicated concentrations, for 72 h. Cell extracts were immunoprecipitated with anti-FGF-R3 and then subjected to Western blotting with anti p-Tyr or anti-FGF-R3.
The following human medullary thyroid carcinoma (MTC) cell lines were used in this study. The TT cell line derived from a MEN2A-associated MTC characterized by expression of the RET oncogene carrying the mutation C634W. […]
as §1

T1 sequence (P07949 29-1072 isoform P07949-2 C634R limits assumed): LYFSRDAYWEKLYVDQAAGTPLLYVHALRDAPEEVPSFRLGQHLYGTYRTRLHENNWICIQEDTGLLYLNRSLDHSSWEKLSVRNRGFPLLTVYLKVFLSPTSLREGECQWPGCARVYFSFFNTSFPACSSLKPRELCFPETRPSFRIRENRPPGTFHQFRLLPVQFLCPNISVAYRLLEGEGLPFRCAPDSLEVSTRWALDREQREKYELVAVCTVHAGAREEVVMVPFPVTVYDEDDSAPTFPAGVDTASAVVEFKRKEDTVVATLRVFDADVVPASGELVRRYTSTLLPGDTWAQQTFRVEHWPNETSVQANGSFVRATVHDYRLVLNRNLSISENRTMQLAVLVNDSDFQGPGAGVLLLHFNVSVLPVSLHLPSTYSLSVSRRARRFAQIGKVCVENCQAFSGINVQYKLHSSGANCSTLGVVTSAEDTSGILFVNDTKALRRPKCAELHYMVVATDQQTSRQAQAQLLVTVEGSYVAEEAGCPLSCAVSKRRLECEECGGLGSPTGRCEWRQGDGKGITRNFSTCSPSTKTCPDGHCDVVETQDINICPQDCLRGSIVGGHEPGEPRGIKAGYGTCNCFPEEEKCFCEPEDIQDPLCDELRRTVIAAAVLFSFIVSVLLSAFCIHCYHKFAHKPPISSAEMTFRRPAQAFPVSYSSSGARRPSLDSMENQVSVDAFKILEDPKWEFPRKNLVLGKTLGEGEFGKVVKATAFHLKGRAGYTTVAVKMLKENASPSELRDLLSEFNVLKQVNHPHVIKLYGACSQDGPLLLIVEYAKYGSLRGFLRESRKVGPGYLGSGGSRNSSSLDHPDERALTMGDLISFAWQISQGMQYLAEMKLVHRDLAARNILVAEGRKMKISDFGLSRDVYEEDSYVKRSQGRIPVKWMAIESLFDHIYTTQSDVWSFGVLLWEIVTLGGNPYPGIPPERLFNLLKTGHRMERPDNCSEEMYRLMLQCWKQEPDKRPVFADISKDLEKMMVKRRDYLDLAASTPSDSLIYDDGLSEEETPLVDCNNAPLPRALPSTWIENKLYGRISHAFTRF

In the case of `COc1cc2c(cc1OC)/C(=C\c1ccc(O)cc1)C(=O)N2` [Cpd 1, (E)-1,3-dihydro-5,6-dimethoxy-3-[(4-hydroxyphenyl)methylene]-2H-indol-2-one], the “Ret/MEN2A(C634R) tyrosine phosphorylation” value (Ret/MEN2A(C634R); 2 h of exposure) is reported as “partially dephosphorylated”, the “Ret/MEN2A(C634R) receptor expression” value (Ret/MEN2A(C634R); longer times than 2 h) is reported as “reduced expression” and the “Ret/MEN2A(C634R) tyrosine phosphorylation” value (Ret/MEN2A(C634R); longer times than 2 h) is reported as “complete tyrosine dephosphorylation”. The “TWI (tumor weight inhibition)” value ([1]; 50 mg/Kg per os, 2qd, P<0.005) was 60%, the “TWI (tumor weight inhibition)” value ([1]; 100 mg/Kg per os, 2qd, P<0.0005) was 80% and the Tumor growth ([1]; 50 or 100 mg/Kg per os, 2qd, 10 days) was “significant dose-dependent inhibition”. For the same molecule, the “Tumor weight inhibition (TWI) reached” value ([1]; oral, daily dose of 50-100 mg/Kg (twice a day)) was 80%, the Toxicity ([1]; oral, daily dose of 50-100 mg/Kg (twice a day), nude mice) was “without inducing toxicity” and the FGF-R1 tyrosine phosphorylation (FGF-R1; Swiss3T3 cells serum starved, 100 ng/ml FGF 5 min) was “dose-dependent inhibition”. For the same molecule, the FGF-R1 expression (FGF-R1; Swiss3T3 cells) was “dose-dependent inhibition”.
